According to the supplement of paper PMC4862054:

tested on: MDA-MB-453; assay: normalised response (% of control), CellTiter-Glo; higher = more viable cells (100 = DMSO, 0 = benzethonium chloride kill control); details: incubation time: 72 h
Experimental: (§1)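 DSRT, 72 h incubation, CellTox Green / CellTiter-Glo readout. Signal is normalised to DMSO and benzethonium chloride controls. Value is the normalised response at the highest dose.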

Structure (SMILES)	normalised response
Oc1ncc(N(CCCl)CCCl)c(O)n1 [Uracil mustard] (10000 nM)	89.4%
C=CCc1cccc(/C=N/NC(=O)CN2CCN(Cc3ccccc3)CC2)c1O [PAC-1] (10000 nM)	26.4%
COc1cc2c(NC3CCN(C(C)C)CC3)nc(C3CCCCC3)nc2cc1OCCCN1CCCC1 [UNC0638] (10000 nM)	0.34%
C=CC(=O)Nc1cc2c(Nc3ccc(F)c(Cl)c3)ncnc2cc1OCCCN1CCOCC1 [Canertinib] (10000 nM)	25.5%
C=CC(=O)N1CCC[C@@H](n2nc(-c3ccc(Oc4ccccc4)cc3)c3c(N)ncnc32)C1 [Ibrutinib] (1000 nM)	73.6%
O=C(O)CCCCC(CCSCc1ccccc1)SCc1ccccc1 (stereo not drawn) [CPI-613] (10000 nM)	105%
CCc1cncnc1N1CCN(Cc2nc3ccc(C(F)(F)F)cc3[nH]2)CC1 (10000 nM)	81.6%

tested on: BT-549; assay: as above; details: incubation time: 72 h
Experimental: as §1

Structure (SMILES)	normalised response
CCCCC(=O)OCC(=O)[C@]1(O)Cc2c(O)c3c(c(O)c2[C@@H](O[C@H]2C[C@H](NC(=O)C(F)(F)F)[C@H](O)[C@H](C)O2)C1)C(=O)c1c(OC)cccc1C3=O [Valrubicin] (5000 nM)	13.4%
Cc1ccc(-c2cc(C(F)(F)F)nn2-c2ccc(S(N)(=O)=O)cc2)cc1 [Celecoxib] (10000 nM)	104%
Oc1ncc(N(CCCl)CCCl)c(O)n1 [Uracil mustard] (10000 nM)	97.9%
C=CCc1cccc(/C=N/NC(=O)CN2CCN(Cc3ccccc3)CC2)c1O [PAC-1] (10000 nM)	34%
COc1cc2c(NC3CCN(C(C)C)CC3)nc(C3CCCCC3)nc2cc1OCCCN1CCCC1 [UNC0638] (10000 nM)	1.52%
C=CC(=O)Nc1cc2c(Nc3ccc(F)c(Cl)c3)ncnc2cc1OCCCN1CCOCC1 [Canertinib] (10000 nM)	4.73%
C=CC(=O)N1CCC[C@@H](n2nc(-c3ccc(Oc4ccccc4)cc3)c3c(N)ncnc32)C1 [Ibrutinib] (1000 nM)	110%
O=C(O)CCCCC(CCSCc1ccccc1)SCc1ccccc1 (stereo not drawn) [CPI-613] (10000 nM)	96.5%
CCc1cncnc1N1CCN(Cc2nc3ccc(C(F)(F)F)cc3[nH]2)CC1 (10000 nM)	83.9%

tested on: MFM-223; assay: as above; details: incubation time: 72 h
Experimental: as §1

Structure (SMILES)	normalised response
CCCCC(=O)OCC(=O)[C@]1(O)Cc2c(O)c3c(c(O)c2[C@@H](O[C@H]2C[C@H](NC(=O)C(F)(F)F)[C@H](O)[C@H](C)O2)C1)C(=O)c1c(OC)cccc1C3=O [Valrubicin] (5000 nM)	40.8%
Cc1ccc(-c2cc(C(F)(F)F)nn2-c2ccc(S(N)(=O)=O)cc2)cc1 [Celecoxib] (10000 nM)	93.5%
Oc1ncc(N(CCCl)CCCl)c(O)n1 [Uracil mustard] (10000 nM)	104%
C=CCc1cccc(/C=N/NC(=O)CN2CCN(Cc3ccccc3)CC2)c1O [PAC-1] (10000 nM)	43.4%
COc1cc2c(NC3CCN(C(C)C)CC3)nc(C3CCCCC3)nc2cc1OCCCN1CCCC1 [UNC0638] (10000 nM)	3.95%
C=CC(=O)Nc1cc2c(Nc3ccc(F)c(Cl)c3)ncnc2cc1OCCCN1CCOCC1 [Canertinib] (10000 nM)	26.4%
C=CC(=O)N1CCC[C@@H](n2nc(-c3ccc(Oc4ccccc4)cc3)c3c(N)ncnc32)C1 [Ibrutinib] (1000 nM)	88.4%
O=C(O)CCCCC(CCSCc1ccccc1)SCc1ccccc1 (stereo not drawn) [CPI-613] (10000 nM)	102%
CCc1cncnc1N1CCN(Cc2nc3ccc(C(F)(F)F)cc3[nH]2)CC1 (10000 nM)	78.3%

tested on: BT-474; assay: as above; details: incubation time: 72 h
Experimental: as §1

Structure (SMILES)	normalised response
CCCCC(=O)OCC(=O)[C@]1(O)Cc2c(O)c3c(c(O)c2[C@@H](O[C@H]2C[C@H](NC(=O)C(F)(F)F)[C@H](O)[C@H](C)O2)C1)C(=O)c1c(OC)cccc1C3=O [Valrubicin] (5000 nM)	40.1%
Cc1ccc(-c2cc(C(F)(F)F)nn2-c2ccc(S(N)(=O)=O)cc2)cc1 [Celecoxib] (10000 nM)	92.9%
Oc1ncc(N(CCCl)CCCl)c(O)n1 [Uracil mustard] (10000 nM)	99.5%
C=CCc1cccc(/C=N/NC(=O)CN2CCN(Cc3ccccc3)CC2)c1O [PAC-1] (10000 nM)	38.9%
COc1cc2c(NC3CCN(C(C)C)CC3)nc(C3CCCCC3)nc2cc1OCCCN1CCCC1 [UNC0638] (10000 nM)	2.59%
C=CC(=O)Nc1cc2c(Nc3ccc(F)c(Cl)c3)ncnc2cc1OCCCN1CCOCC1 [Canertinib] (10000 nM)	15.9%
C=CC(=O)N1CCC[C@@H](n2nc(-c3ccc(Oc4ccccc4)cc3)c3c(N)ncnc32)C1 [Ibrutinib] (1000 nM)	106%
O=C(O)CCCCC(CCSCc1ccccc1)SCc1ccccc1 (stereo not drawn) [CPI-613] (10000 nM)	98.9%
CCc1cncnc1N1CCN(Cc2nc3ccc(C(F)(F)F)cc3[nH]2)CC1 (10000 nM)	85.8%

tested on: HDQ-P1; assay: as above; details: incubation time: 72 h
Experimental: as §1

Structure (SMILES)	normalised response
CCCCC(=O)OCC(=O)[C@]1(O)Cc2c(O)c3c(c(O)c2[C@@H](O[C@H]2C[C@H](NC(=O)C(F)(F)F)[C@H](O)[C@H](C)O2)C1)C(=O)c1c(OC)cccc1C3=O [Valrubicin] (5000 nM)	45.4%
Cc1ccc(-c2cc(C(F)(F)F)nn2-c2ccc(S(N)(=O)=O)cc2)cc1 [Celecoxib] (10000 nM)	89.8%
Oc1ncc(N(CCCl)CCCl)c(O)n1 [Uracil mustard] (10000 nM)	98.1%
C=CCc1cccc(/C=N/NC(=O)CN2CCN(Cc3ccccc3)CC2)c1O [PAC-1] (10000 nM)	61.4%
COc1cc2c(NC3CCN(C(C)C)CC3)nc(C3CCCCC3)nc2cc1OCCCN1CCCC1 [UNC0638] (10000 nM)	23.3%
C=CC(=O)Nc1cc2c(Nc3ccc(F)c(Cl)c3)ncnc2cc1OCCCN1CCOCC1 [Canertinib] (10000 nM)	1.5%
C=CC(=O)N1CCC[C@@H](n2nc(-c3ccc(Oc4ccccc4)cc3)c3c(N)ncnc32)C1 [Ibrutinib] (1000 nM)	68.3%
O=C(O)CCCCC(CCSCc1ccccc1)SCc1ccccc1 (stereo not drawn) [CPI-613] (10000 nM)	106%
CCc1cncnc1N1CCN(Cc2nc3ccc(C(F)(F)F)cc3[nH]2)CC1 (10000 nM)	102%

tested on: MDA-MB-231; assay: as above; details: incubation time: 72 h
Experimental: as §1

Structure (SMILES)	normalised response
CCCCC(=O)OCC(=O)[C@]1(O)Cc2c(O)c3c(c(O)c2[C@@H](O[C@H]2C[C@H](NC(=O)C(F)(F)F)[C@H](O)[C@H](C)O2)C1)C(=O)c1c(OC)cccc1C3=O [Valrubicin] (5000 nM)	47.7%
Cc1ccc(-c2cc(C(F)(F)F)nn2-c2ccc(S(N)(=O)=O)cc2)cc1 [Celecoxib] (10000 nM)	96.8%
Oc1ncc(N(CCCl)CCCl)c(O)n1 [Uracil mustard] (10000 nM)	95.6%
C=CCc1cccc(/C=N/NC(=O)CN2CCN(Cc3ccccc3)CC2)c1O [PAC-1] (10000 nM)	45%
COc1cc2c(NC3CCN(C(C)C)CC3)nc(C3CCCCC3)nc2cc1OCCCN1CCCC1 [UNC0638] (10000 nM)	0.6%
C=CC(=O)Nc1cc2c(Nc3ccc(F)c(Cl)c3)ncnc2cc1OCCCN1CCOCC1 [Canertinib] (10000 nM)	5%
C=CC(=O)N1CCC[C@@H](n2nc(-c3ccc(Oc4ccccc4)cc3)c3c(N)ncnc32)C1 [Ibrutinib] (1000 nM)	105%
O=C(O)CCCCC(CCSCc1ccccc1)SCc1ccccc1 (stereo not drawn) [CPI-613] (10000 nM)	93.6%
CCc1cncnc1N1CCN(Cc2nc3ccc(C(F)(F)F)cc3[nH]2)CC1 (10000 nM)	95%

tested on: CAL-120; assay: as above; details: incubation time: 72 h
Experimental: as §1

Structure (SMILES)	normalised response
CCCCC(=O)OCC(=O)[C@]1(O)Cc2c(O)c3c(c(O)c2[C@@H](O[C@H]2C[C@H](NC(=O)C(F)(F)F)[C@H](O)[C@H](C)O2)C1)C(=O)c1c(OC)cccc1C3=O [Valrubicin] (5000 nM)	59.3%
Cc1ccc(-c2cc(C(F)(F)F)nn2-c2ccc(S(N)(=O)=O)cc2)cc1 [Celecoxib] (10000 nM)	106%
Oc1ncc(N(CCCl)CCCl)c(O)n1 [Uracil mustard] (10000 nM)	107%
C=CCc1cccc(/C=N/NC(=O)CN2CCN(Cc3ccccc3)CC2)c1O [PAC-1] (10000 nM)	34.8%
COc1cc2c(NC3CCN(C(C)C)CC3)nc(C3CCCCC3)nc2cc1OCCCN1CCCC1 [UNC0638] (10000 nM)	8.51%
C=CC(=O)Nc1cc2c(Nc3ccc(F)c(Cl)c3)ncnc2cc1OCCCN1CCOCC1 [Canertinib] (10000 nM)	26.6%
C=CC(=O)N1CCC[C@@H](n2nc(-c3ccc(Oc4ccccc4)cc3)c3c(N)ncnc32)C1 [Ibrutinib] (1000 nM)	100%
O=C(O)CCCCC(CCSCc1ccccc1)SCc1ccccc1 (stereo not drawn) [CPI-613] (10000 nM)	104%
CCc1cncnc1N1CCN(Cc2nc3ccc(C(F)(F)F)cc3[nH]2)CC1 (10000 nM)	89%

tested on: MDA-MB-468; assay: as above; details: incubation time: 72 h
Experimental: as §1

Structure (SMILES)	normalised response
CCCCC(=O)OCC(=O)[C@]1(O)Cc2c(O)c3c(c(O)c2[C@@H](O[C@H]2C[C@H](NC(=O)C(F)(F)F)[C@H](O)[C@H](C)O2)C1)C(=O)c1c(OC)cccc1C3=O [Valrubicin] (5000 nM)	22.8%
Cc1ccc(-c2cc(C(F)(F)F)nn2-c2ccc(S(N)(=O)=O)cc2)cc1 [Celecoxib] (10000 nM)	103%
Oc1ncc(N(CCCl)CCCl)c(O)n1 [Uracil mustard] (10000 nM)	101%
C=CCc1cccc(/C=N/NC(=O)CN2CCN(Cc3ccccc3)CC2)c1O [PAC-1] (10000 nM)	11.6%
COc1cc2c(NC3CCN(C(C)C)CC3)nc(C3CCCCC3)nc2cc1OCCCN1CCCC1 [UNC0638] (10000 nM)	0.31%
C=CC(=O)Nc1cc2c(Nc3ccc(F)c(Cl)c3)ncnc2cc1OCCCN1CCOCC1 [Canertinib] (10000 nM)	2.49%
C=CC(=O)N1CCC[C@@H](n2nc(-c3ccc(Oc4ccccc4)cc3)c3c(N)ncnc32)C1 [Ibrutinib] (1000 nM)	80.7%
O=C(O)CCCCC(CCSCc1ccccc1)SCc1ccccc1 (stereo not drawn) [CPI-613] (10000 nM)	98.2%
CCc1cncnc1N1CCN(Cc2nc3ccc(C(F)(F)F)cc3[nH]2)CC1 (10000 nM)	70%

tested on: CAL-148; assay: as above; details: incubation time: 72 h
Experimental: as §1

Structure (SMILES)	normalised response
CCCCC(=O)OCC(=O)[C@]1(O)Cc2c(O)c3c(c(O)c2[C@@H](O[C@H]2C[C@H](NC(=O)C(F)(F)F)[C@H](O)[C@H](C)O2)C1)C(=O)c1c(OC)cccc1C3=O [Valrubicin] (5000 nM)	0.81%
Cc1ccc(-c2cc(C(F)(F)F)nn2-c2ccc(S(N)(=O)=O)cc2)cc1 [Celecoxib] (10000 nM)	99.9%
Oc1ncc(N(CCCl)CCCl)c(O)n1 [Uracil mustard] (10000 nM)	107%
C=CCc1cccc(/C=N/NC(=O)CN2CCN(Cc3ccccc3)CC2)c1O [PAC-1] (10000 nM)	26.6%
COc1cc2c(NC3CCN(C(C)C)CC3)nc(C3CCCCC3)nc2cc1OCCCN1CCCC1 [UNC0638] (10000 nM)	3.47%
C=CC(=O)Nc1cc2c(Nc3ccc(F)c(Cl)c3)ncnc2cc1OCCCN1CCOCC1 [Canertinib] (10000 nM)	42.9%
C=CC(=O)N1CCC[C@@H](n2nc(-c3ccc(Oc4ccccc4)cc3)c3c(N)ncnc32)C1 [Ibrutinib] (1000 nM)	101%
O=C(O)CCCCC(CCSCc1ccccc1)SCc1ccccc1 (stereo not drawn) [CPI-613] (10000 nM)	105%
CCc1cncnc1N1CCN(Cc2nc3ccc(C(F)(F)F)cc3[nH]2)CC1 (10000 nM)	95.4%

tested on: MCF-10A; assay: as above; details: incubation time: 72 h
Experimental: as §1

Structure (SMILES)	normalised response
CCCCC(=O)OCC(=O)[C@]1(O)Cc2c(O)c3c(c(O)c2[C@@H](O[C@H]2C[C@H](NC(=O)C(F)(F)F)[C@H](O)[C@H](C)O2)C1)C(=O)c1c(OC)cccc1C3=O [Valrubicin] (5000 nM)	9.91%
Cc1ccc(-c2cc(C(F)(F)F)nn2-c2ccc(S(N)(=O)=O)cc2)cc1 [Celecoxib] (10000 nM)	108%
Oc1ncc(N(CCCl)CCCl)c(O)n1 [Uracil mustard] (10000 nM)	101%
C=CCc1cccc(/C=N/NC(=O)CN2CCN(Cc3ccccc3)CC2)c1O [PAC-1] (10000 nM)	77.7%
